The target of one assay is T1, Akt1 (Homo sapiens, UniProt P31749).
T1 construct: purchased 32-021
The experiment in a line: AKT1/PKBα KinEASE FP Fluorescein Green Assay (fluorescence polarization kinase kit). Format: biochemical. Conditions: 1 h reaction, read-out: Inhibitory activities against Akt1 (IC50). In outline: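 FP competition kinase assay: compounds (50 μM stock) with STK Substrate 3 and ATP, 1 h reaction at room temperature; stopped with stop/antibody mix, 4 h at room temperature, then polarization read. Inhibition derived from polarization values; IC50 calculated; triplicate wells.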
(In fluorescence polarisation assays a small probe gives low polarisation when free and higher when bound to something large.)

In assay [1] the test system is Human ovarian cancer cell strain OVCAR-8. The experiment in a line: MTT assay, inhibition of tumor cell growth in vitro, 72 h. Format: cell-based. Conditions: Homo sapiens, OVCAR-8, MTT, read-out: Antitumor proliferative activities of tumor cell (IC50, μM) OVCAR-8. In outline:
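OVCAR8 cells in RPMI 1640 plus FBS were seeded at 4000 cells/well and exposed for 72 h at 37 °C to compound at 50, 10, 2, 0.4 and 0.08 μM final, with 1% DMSO as blank. Inhibition was calculated from OD relative to control, and IC50 was derived by the Bliss method.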
Background: Tetrazolium dyes change colour on reduction, which living cells bring about.

For assay [2], the system named is human colon cancer cell strain HCT-116. The description is as above. As to conditions: Homo sapiens, HCT-116, MTT, read-out: Antitumor proliferative activities of tumor cell (IC50, μM) HCT-116 (converted). Type of assay: cell-based. In outline: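 Cells in RPMI 1640 with FBS, 4000 cells/well, exposed 72 h at 37 °C, 5% CO2 to final 50, 10, 2, 0.4 and 0.08 μM; 1% DMSO blank. MTT OD gives % inhibition versus control; IC50 derived by Bliss method.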

SMILES strings stand for the structures.

The source of these data is patent US10233180B2, “Substituted nitrogen-containing heterocyclic derivatives, pharmaceutical compositions comprising the same and applications of antitumor thereof” (ZHEJIANG UNIVERSITY, priority 2014, dated 2019).

A word on the IC50: it is the concentration at which inhibition is half-maximal.

T1 sequence (P31749 whole entry): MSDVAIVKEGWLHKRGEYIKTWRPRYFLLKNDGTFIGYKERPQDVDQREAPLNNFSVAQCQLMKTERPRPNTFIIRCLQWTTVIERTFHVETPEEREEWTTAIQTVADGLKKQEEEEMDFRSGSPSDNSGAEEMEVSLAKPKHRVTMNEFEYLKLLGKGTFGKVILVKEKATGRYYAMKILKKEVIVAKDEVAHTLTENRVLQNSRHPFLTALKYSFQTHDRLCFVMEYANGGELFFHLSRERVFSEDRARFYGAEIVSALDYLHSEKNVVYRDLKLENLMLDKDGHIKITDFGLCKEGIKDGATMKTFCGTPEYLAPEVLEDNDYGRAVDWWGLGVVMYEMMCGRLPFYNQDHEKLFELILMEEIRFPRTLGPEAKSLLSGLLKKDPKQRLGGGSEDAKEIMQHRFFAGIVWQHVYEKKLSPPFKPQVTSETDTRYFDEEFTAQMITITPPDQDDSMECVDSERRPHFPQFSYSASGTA

Turning to `CCc1c(-c2c(Cl)cnn2C)cc(C(=O)N[C@H]2CNCC[C@@H]2C2CCC(F)C2)n1C` (stereo partly drawn) [Compound 15, 5-ethyl-1-methyl-4-(4-chloro-1-methyl-1H-pyrazol-5-yl)-N-(3,4-trans-4-(3-fluorocyclopentanyl)piperidin-3-yl)-1H-pyrrole-2-formamide], the values for the IC50 (on Akt1; in assay [1]; in assay [2]) were 52 nM, 1.26 µM and 2.04 µM, respectively.
For the compound `Cc1c(C(=O)N[C@H]2CNCC[C@@H]2C2CCCC(Cl)C2)sc(Cl)c1-c1ncnn1C` (stereo partly drawn) [Compound 18], the IC50 was 18 nM on Akt1, 5.69 µM in assay [1] and 1.83 µM in assay [2].
Regarding `Cn1ncc(Cl)c1-c1cc(C(=O)N[C@H]2CNCC[C@@H]2c2ccc(Cl)c(Cl)c2)oc1Cl` [Compound 39, 5-chloro-4-(4-chloro-1-methyl-1H-pyrazol-5-yl)-N-((3R,4R)-4-(3,4-dichlorophenyl)piperidin-3-yl)furan-2-formamide], the half-maximal inhibitory concentration (IC50) is 58 nM on Akt1, 14.3 µM in assay [1] and 3.45 µM in assay [2].
On to `Cn1ncc(Cl)c1-c1cc(C(=O)N[C@@H]2CNCC[C@H]2c2ccc(Cl)c(Cl)c2)oc1Cl` [Compound 40, 5-chloro-4-(4-chloro-1-methyl-1H-pyrazol-5-yl)-N-((3S,4S)-4-(3,4-dichlorophenyl)piperidin-3-yl)furan-2-formamide], for which the IC50 on Akt1 is 118 nM; in assay [1], 1.69 µM; in assay [2], 1.56 µM.
Regarding `Cn1ncc(Br)c1-c1csc(C(=O)N[C@H]2CNCC[C@@H]2c2ccc(F)c(F)c2)c1` [Compound 41, 4-(4-bromo-1-methyl-1H-pyrazol-5-yl)-N-((3R,4R)-4-(3,4-difluorophenyl)piperidin-3-yl)thiophene-2-formamide], the values for the half-maximal inhibitory concentration (IC50) (on Akt1; in assay [1]; in assay [2]) were 452 nM, 9.43 µM and 4.06 µM, respectively.
Consider `Cn1ncc(Br)c1-c1csc(C(=O)N[C@@H]2CNCC[C@H]2c2ccc(F)c(F)c2)c1` [Compound 42, 4-(4-bromo-1-methyl-1H-pyrazol-5-yl)-N-((3S,4S)-4-(3,4-difluorophenyl)piperidin-3-yl)thiophene-2-formamide], for which the IC50 at Akt1 is 92 nM; in assay [1], 9.71 µM; in assay [2] it was 8.11 µM.
Regarding `Cn1ncc(Cl)c1-c1cc(C(=O)N[C@H]2CNCC[C@@H]2c2ccc(C(F)(F)F)cc2)oc1Cl` [Compound 43, 5-chloro-4-(4-chloro-1-methyl-1H-pyrazol-5-yl)-N-((3R,4R)-4-(4-trifluoromethylphenyl)piperidin-3-yl)furan-2-formamide], the IC50 was 342 nM on Akt1, 3.58 µM in assay [1] and 13.8 µM in assay [2].
With `Cn1ncc(Cl)c1-c1cc(C(=O)N[C@@H]2CNCC[C@H]2c2ccc(C(F)(F)F)cc2)oc1Cl` [Compound 44, 5-chloro-4-(4-chloro-1-methyl-1H-pyrazol-5-yl)-N-((3S,4S)-4-(4-trifluoromethylphenyl)piperidin-3-yl)furan-2-formamide], the half-maximal inhibitory concentration (IC50) was 672 nM on Akt1, 1.88 µM in assay [1] and 18.3 µM in assay [2].
Take `CC(C)c1cnn(C)c1-c1nc(C(=O)N[C@H]2CNCC[C@@H]2C2CCC(F)C2)ncc1Cl` (stereo partly drawn) [Compound 51, 5-chloro-4-(4-isopropyl-1-methyl-1H-pyrazol-5-yl)-N-(3,4-trans-4-(3-fluorocyclopentane)piperidin-3-yl)pyrimidine-2-formamide]: the IC50 on Akt1 was 85 nM; in assay [1], 0.68 µM; in assay [2], 3.11 µM.
In the case of `CC1CCC([C@H]2CCNC[C@@H]2NC(=O)c2ncc(-c3c(Cl)cnn3C)c(Cl)n2)CC1` (stereo partly drawn) [Compound 55, 4-chloro-5-(4-chloro-1-methyl-1H-pyrazol-5-yl)-N-(3,4-trans-4-(4-methylcyclohexane)piperidin-3-yl)pyrimidine-2-formamide], the 50% inhibitory concentration (IC50) on Akt1 was 48 nM; in assay [1], 5.79 µM; in assay [2], 10.8 µM.
The like results for `Cc1cc(C(=O)N[C@H]2CNCC[C@@H]2C2CCCC(Cl)C2)ncc1-c1c(Cl)cnn1C` (stereo partly drawn) [Compound 56, 5-(4-chloro-1-methyl-1H-pyrazol-5-yl)-N-(3,4-trans-4-(3-chlorocyclohexane)piperidin-3-yl)-4-methylpyridinyl-2-formamide] were, in that order, 362 nM, 9.53 µM and 4.51 µM.
In the case of `Cc1cnn(C)c1-c1cnc(C(=O)N[C@H]2CNCC[C@@H]2c2ccc(F)c(F)c2)cc1F` [Compound 61, 4-fluoro-5-(1,4-dimethyl-1H-pyrazol-5-yl)-N-((3R,4R)-4-(3,4-difluorophenyl)piperidin-3-yl)pyridinyl-2-formamide], the IC50 at Akt1 is 188 nM; in assay [1], 8.44 µM; in assay [2], 3.85 µM.
The like results for `Cc1cnn(C)c1-c1cnc(C(=O)N[C@@H]2CNCC[C@H]2c2ccc(F)c(F)c2)cc1F` [Compound 62, 4-fluoro-5-(1,4-dimethyl-1H-pyrazol-5-yl)-N-((3S,4S)-4-(3,4-difluorophenyl)piperidin-3-yl)pyridinyl-2-formamide] were, in that order, 626 nM, 6.67 µM and 31.1 µM.
In the case of `CCc1cc(C(=O)N[C@@H]2CNCC[C@H]2c2ccc(C(F)(F)F)cc2)cnc1-c1c(Br)cnn1C` [Compound 64, 5-ethyl-6-(4-bromo-1-methyl-1H-pyrazol-5-yl)-N-((3S,4S)-4-(4-trifluoromethylphenyl)piperidin-3-yl)pyridinyl-3-formamide], the half-maximal inhibitory concentration (IC50) on Akt1 was 256 nM; in assay [1], 1.62 µM; in assay [2] it was 22.6 µM.
`Cn1ncc(Br)c1-c1ccc(C(=O)N[C@@H]2CNCC[C@H]2c2ccc(Cl)cc2)cc1` [Compound 72, 4-(4-bromo-1-methyl-1H-pyrazol-5-yl)-N-((3S,4S)-4-(4-chlorophenyl)piperidin-3-yl)benzamide]: the 50% inhibitory concentration (IC50) is 6 nM at Akt1, 1.34 µM in assay [1] and 0.92 µM in assay [2].
The like results for `Cn1ncc(Cl)c1-c1ccc(C(=O)N[C@@H]2CNCC[C@H]2c2cccc(F)c2)cc1` [Compound 73, 4-(4-chloro-1-methyl-1H-pyrazol-5-yl)-N-((3S,4S)-4-(3-fluorophenyl)piperidin-3-yl)benzamide] were, in that order, 7 nM, 2.45 µM and 1.21 µM.
In the case of `Cc1cc(C(=O)N[C@@H]2CNCC[C@H]2c2ccc(Cl)c(C(F)(F)F)c2)ccc1-c1c(Cl)cnn1C` [Compound 74, 4-(4-chloro-1-methyl-1H-pyrazol-5-yl)-N-((3S,4S)-4-(4-chloro-3-(trifluoromethyl)phenyl)piperidin-3-yl)-3-methylbenzamide], the half-maximal inhibitory concentration (IC50) at Akt1 is 14 nM; in assay [1], 1.3 µM; in assay [2], 0.42 µM.
As for `CCc1cnn(C)c1-c1cc(F)c(C(=O)N[C@@H]2CNCC[C@H]2c2ccc(Cl)c(C(F)(F)F)c2)c(F)c1` [Compound 75, N-((3S,4S)-4-(4-chloro-3-(trifluoromethyl)phenyl)piperidin-3-yl)-4-(4-ethyl-1-methyl-1H-pyrazol-5-yl)-2,6-difluorobenzamide], the half-inhibitory concentration (IC50) was 13 nM at Akt1, 2.19 µM in assay [1] and 0.99 µM in assay [2].
